Test results taken from patent publication US9428512B2, “Compounds” (GlaxoSmithKline LLC, priority 2012, dated 2016).

Tests used:
[1] = tested on: TNF-α induction in human whole blood; test: Induction of TNF-α using fresh human whole blood (WB); format: cell-based; conditions: three donors, overnight incubation, cytokine release as % of 2 μM resiquimod control, read-out: mean pEC50 for TNF-α (converted)
Protocol: (§1) Assay for the Induction of Interferon-α and TNF-α Using Fresh Human Whole Blood (WB)
(§2) Compounds were prepared at 100× required concentration in DMSO in flat-bottom microtitre plates at a volume of 1.5 μL. Columns 1-10 contained a 1 in 4 serial dilution of the test compound. Included on each plate was a serial dilution of the TLR7/8 agonist resiquimod as a standard and Column 11 contained 1.5 μl of 200 μM resiquimod (giving a 2 μM final concentration, used to define the approximate maximal response to resiquimod). Each compound was assayed in duplicate for each donor.
(§3) Blood samples from three human donors were collected into sodium heparin (10 U/ml). 150 μl of whole Blood was dispensed into Col 1 to 11 of assay plates containing 1.5 μl of test compound or standard in DMSO. Plates were placed in an incubator overnight (37° C., 95% air, 5% CO2). Following the overnight incubation, plates were removed from the incubator & mixed on an orbital shaker for approximately 1 minute. 100 μl of 0.9% saline was added to each well and the plates mixed again on an orbital shaker. Plates were then centrifuged (2500 rpm, 10 mins), after which a sample of plasma was removed using a Biomek FX and assayed for both IFN-α and TNF-α using the MSD (Mesoscale Discovery) electrochemiluminescence assay platform. The IFN-α assay was carried out similarly to that described above. The TNF-α assay was carried out as per kit instructions (Cat No K111BHB).
(§4) Cytokine released was expressed as a percentage of the 2 μM resiquimod control (column 11). This percentage was plotted against compound concentration and the pEC50 for the response determined by non-linear least squares curve fitting. For the IFN-α responses, generally a 4 parameter logistic model was selected. For the TNF-α responses where a clear maximum response was obtained (i.e. a well defined plateau in the response was observed) then a 4 parameter model was generally used. If the upper asymptote of the curve wasn't well defined then the curve fitting was generally constrained to a maximal response of 100% (i.e. to the response to 2 μM resiquimod) or to the response of the highest concentration tested if this was greater than the resiquimod response. Some curves were bell shaped for one or both cytokines and the cytokine data on the down slope of the bell shaped response (i.e. concentrations above those giving the maximal response) were generally excluded from the fit, usually with the exception of the concentration immediately above the peak response. Curve fitting thus concentrated on the up slope of the dose response curve.

[2] = tested on: IFN-α induction in human whole blood; test: Induction of Interferon-α using fresh human whole blood (WB); format: cell-based; conditions: three donors, overnight incubation, cytokine release as % of 2 μM resiquimod control, read-out: mean pEC50 for IFN-α (converted)
Protocol: as §1, §2, §3, §4

Compound	EC50 [1]	EC50 [2]
CCCCc1nc(N)c2[nH]cc(CCCCCN3CCNCC3)c2n1 [Example 1, 2-Butyl-7-(5-(piperazin-1-yl)pentyl)-5H-pyrrolo[3,2-d]pyrimidin-4-amine]	≥ 5.01 µM	≤ 1.58 µM
CCCCc1nc(N)c2[nH]cc(CCCCCN3CCN(C(C)C)CC3)c2n1 [Example 2, 2-Butyl-7-(5-(4-isopropylpiperazin-1-yl)pentyl)-5H-pyrrolo[3,2-d]pyrimidin-4-amine]	≥ 5.01 µM	≤ 1.58 µM
CCCCc1nc(N)c2[nH]c(C)c(CCCCCN3CCN(C(C)C)CC3)c2n1 [Example 3, 2-Butyl-7-(5-(4-isopropylpiperazin-1-yl)pentyl)-6-methyl-5H-pyrrolo[3,2-d]pyrimidin-4-amine]	≥ 5.01 µM	≤ 1.58 µM
CCCCc1nc(N)c2[nH]c(C)c(CCCCCN3CCN(CC)CC3)c2n1 [Example 4, 2-Butyl-7-(5-(4-ethylpiperazin-1-yl)pentyl)-6-methyl-5H-pyrrolo[3,2-d]pyrimidin-4-amine]	≥ 5.01 µM	≤ 1.58 µM
CCCCc1nc(N)c2[nH]cc(CCCN3CCNCC3)c2n1 [Example 5, 2-Butyl-7-(3-(piperazin-1-yl)propyl)-5H-pyrrolo[3,2-d]pyrimidin-4-amine]	≥ 5.01 µM	≤ 1.58 µM

The remaining lines, values ahead:

EC50 [1]	EC50 [2]	Compound
≥ 5.01 µM	≤ 1.58 µM	CCCCc1nc(N)c2[nH]cc(CCCN3CCN(CC)CC3)c2n1 [Example 6, 2-Butyl-7-(3-(4-ethylpiperazin-1-yl)propyl)-5H-pyrrolo[3,2-d]pyrimidin-4-amine]
≥ 5.01 µM	≤ 1.58 µM	CCCCc1nc(N)c2[nH]cc(CCCCN3CCN(C(C)C)CC3)c2n1 [Example 7]
